The text below walks through data of patent publication US20210177847A1, “Compounds for treatment of diseases related to DUX4 expression” (Facio Intellectual Property B.V., priority 2017, published 2021).

The test system of one assay is DUX4. Description: High-content immunocytochemistry assay of endogenous DUX4 expression in differentiating primary FSHD myotubes. As to conditions: for EC50: Homo sapiens, Myotube, read-out: half maximal effective concentration (EC50), DUX4 repression. Type of assay: cell-based, human. From the text:
A quantitative assay readout was developed based on script-based image analysis. Cells were stained according to example 1, also using DAPI to detect myonuclei and an antibody against myosin heavy chain (MHC) to visualize the formation of myotubes. To analyse the images, an automated script was developed, enabling the detection of nuclei, myotube borders and DUX4 signals, with the script also detecting artefacts to reduce false positive signals. The script enabled multiple validated readouts including the number of DUX4 positive nuclei and nuclei clusters, the fusion index, myotube area, myotube width and myotube skeleton length (see FIG. 2). Additionally, the total nuclei count was included as a measure of cell loss or compound toxicity. The script was validated by evaluating endogenous DUX4 expression in the primary myotubes, and results were in line with literature values, with the number of DUX4 expressing nuclei being <0.5%.
A compound library containing approximately 5000 annotated compounds was screened in the high-content assay. For this purpose, primary myoblasts were seeded in 384 well plates after which the growth medium was replaced with differentiation medium. After 3 days of differentiation, cells were treated with library compounds (in duplicate on different screening plates) for 15 h, after which they were fixed and stained with antibodies against DUX4, antibodies against myosin heavy chain (MHC), and with DAPI (4′,6-diamidino-2-phenylindole). Script-based analysis provided readouts for DUX4 expression (count of DUX4-positive nuclei or DUX4 intensity) and for potential toxicity (fusion index and nuclei count). The majority of the approximately 200 hits was confirmed in an experiment using the same assay and 5 replicates. These compounds were selected for further concentration-response profiling.
The DUX4 repression of CK1 inhibitors was assayed following the protocol of Example 2, illustrated in FIG. 4A. […] Compounds were incubated with primary FSHD cells for 15 hours, as indicated by the arrow in FIG. 4A.

Another assay concerns the target p38α (Homo sapiens, UniProt Q16539). Description: p38α inhibition IC50. It is filed as biochemical. The note with it: Table 3; read-out: p38a IC50.
The next assay has as its target CK1ε (Homo sapiens, UniProt P49674). As to the kind of experiment: CK1ε inhibition IC50. It is filed as biochemical. The note with it: Table 3; read-out: CK1 e IC50.
A further assay has as its target CK1δ (Homo sapiens, UniProt P48730). As to the kind of experiment: CK1δ inhibition IC50. As to conditions: Table 3; read-out: CK1 d IC50. It is filed as biochemical.
The next assay concerns the target CK1α (Homo sapiens, UniProt P48729). Description: CK1α inhibition IC50. The note with it: Table 3; read-out: CK1 a IC50. Type of assay: biochemical.
The mark [1] stands for this setting: primary FSHD cells, compounds incubated 15 hours, Table 3.

Where two headings read alike, the source gives them in different places.

Chain of p38α (Q16539 whole entry): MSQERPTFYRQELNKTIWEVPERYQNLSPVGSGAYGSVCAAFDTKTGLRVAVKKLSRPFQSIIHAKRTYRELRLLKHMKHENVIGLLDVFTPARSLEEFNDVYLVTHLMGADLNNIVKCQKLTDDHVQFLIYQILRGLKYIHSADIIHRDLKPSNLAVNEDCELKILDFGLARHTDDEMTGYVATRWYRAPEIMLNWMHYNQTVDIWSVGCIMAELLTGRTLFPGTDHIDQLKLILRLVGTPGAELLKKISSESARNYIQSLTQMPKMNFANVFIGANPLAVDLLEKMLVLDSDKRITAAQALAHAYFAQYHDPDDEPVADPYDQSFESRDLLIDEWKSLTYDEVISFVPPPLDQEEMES
Chain of CK1ε (P49674 whole entry): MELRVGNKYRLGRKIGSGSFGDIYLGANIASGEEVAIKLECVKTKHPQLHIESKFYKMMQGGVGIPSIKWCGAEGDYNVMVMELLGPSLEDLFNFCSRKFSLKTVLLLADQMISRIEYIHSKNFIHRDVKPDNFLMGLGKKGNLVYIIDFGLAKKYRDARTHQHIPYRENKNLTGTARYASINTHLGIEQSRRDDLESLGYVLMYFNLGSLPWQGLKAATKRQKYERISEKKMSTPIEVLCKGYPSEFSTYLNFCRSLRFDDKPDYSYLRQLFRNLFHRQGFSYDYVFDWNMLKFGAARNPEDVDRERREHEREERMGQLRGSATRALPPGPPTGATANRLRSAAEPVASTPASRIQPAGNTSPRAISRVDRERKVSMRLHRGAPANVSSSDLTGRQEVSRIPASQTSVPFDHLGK
Chain of CK1α (P48729 whole entry): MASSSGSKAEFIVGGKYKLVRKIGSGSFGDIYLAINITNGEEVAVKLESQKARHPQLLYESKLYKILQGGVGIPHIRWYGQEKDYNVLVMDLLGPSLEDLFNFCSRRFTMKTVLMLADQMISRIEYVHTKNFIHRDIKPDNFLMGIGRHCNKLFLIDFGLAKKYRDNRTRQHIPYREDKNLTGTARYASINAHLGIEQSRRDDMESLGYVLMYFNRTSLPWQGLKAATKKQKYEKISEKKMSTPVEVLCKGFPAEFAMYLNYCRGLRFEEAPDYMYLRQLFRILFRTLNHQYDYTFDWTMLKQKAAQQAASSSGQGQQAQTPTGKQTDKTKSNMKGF
Chain of CK1δ (P48730 whole entry): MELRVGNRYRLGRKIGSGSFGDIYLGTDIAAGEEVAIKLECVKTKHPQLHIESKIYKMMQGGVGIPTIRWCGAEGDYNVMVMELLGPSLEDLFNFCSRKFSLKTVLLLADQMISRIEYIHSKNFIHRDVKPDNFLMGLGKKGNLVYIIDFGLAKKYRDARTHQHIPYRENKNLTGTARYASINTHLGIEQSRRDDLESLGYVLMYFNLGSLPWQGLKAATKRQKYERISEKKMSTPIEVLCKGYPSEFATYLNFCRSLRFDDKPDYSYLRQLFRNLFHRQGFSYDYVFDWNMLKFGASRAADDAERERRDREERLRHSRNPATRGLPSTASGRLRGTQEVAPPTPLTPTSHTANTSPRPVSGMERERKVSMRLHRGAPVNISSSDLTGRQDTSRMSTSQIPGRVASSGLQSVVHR

Turning to `CC1(C)CN(c2ccc3nc(-c4ccc(F)cc4)c(-c4ccncc4)n3n2)CCN1` [Compound A], the EC50 with DUX4 (setting [1]) lay within 40 to 50 nM.

Consider `CN1CCN(c2ccc3nc(-c4ccc(F)cc4)c(-c4ccncc4)n3n2)CC1` [Compound B], for which the EC50 in the assay on DUX4 (setting [1]) is 2000 nM.

On to `CNc1nccc(-c2c(-c3ccc(F)cc3)ncn2C2CCN(Cc3ccon3)CC2)n1` [Compound C], for which the EC50 in the assay with DUX4 (setting [1]) was in the range of 1100 to 1400 nM.

For `CN1Cc2nccc(-c3cn(C)nc3-c3ccc(F)cc3)c2C1=O` [Compound E], the EC50 in the assay with DUX4 (15 h) was 1900 to 3100 nM.

As to `Cn1cc(-c2ccnc3c2C(=O)N(C2CCOCC2)C3)c(-c2ccc(F)cc2)n1` [Compound F], in the assay with DUX4 (setting [1]), the EC50 was in the range of 1500 to 2600 nM.

For orientation: IC50 means the point on the concentration scale where inhibition reaches its midpoint. Regarding `COCCN1Cc2nccc(-c3cn(C)nc3-c3ccc(F)cc3)c2C1=O` [Compound G], the half-inhibitory concentration (IC50) stood at 712 nM on p38α, 92.1 nM on CK1ε, 41.8 nM on CK1δ and 2590 nM on CK1α. Further, in the assay with DUX4 (setting [1]), the EC50 was in the range of 1700 to 4500 nM.

Turning to `Fc1ccc(-c2nc3ccc(N4CCNCC4)nn3c2-c2ccncc2)cc1` [Compound H], the concentration for half-maximal inhibition (IC50) amounted to 14.8 nM on p38α, 9.41 nM at CK1ε, 16.5 nM at CK1δ and 22 nM at CK1α. Moreover, the EC50 in the assay with DUX4 (setting [1]) lay within 10 to 46 nM.

As for `CNCc1cc(-c2cn(C)nc2-c2ccc(F)cc2)ccn1` [Compound I], the IC50 was 3070 nM on p38α, 89 nM at CK1ε, 57.7 nM at CK1δ and 1760 nM at CK1α. In addition, the EC50 with DUX4 (15 h) is 3100 to 5500 nM.

As to `Fc1ccc(-c2nc(-c3c(F)cccc3F)[nH]c2-c2ccncc2)cc1` [Compound O], in the assay with DUX4 (setting [1]), the EC50 was 710 nM.

In the case of `Nc1nccc(-c2c(-c3ccc(F)cc3)ncn2C2CCCCC2)n1` [PF-670462, reference compound], in the assay with DUX4 (setting [1]), the EC50 worked out at 430 nM.

In the case of `Nc1nccc(-c2c(-c3ccc(F)cc3)ncn2C2CCN(Cc3ccon3)CC2)n1` [PF-5006739, reference compound], the EC50 in the assay on DUX4 (setting [1]) was found to be 310 nM.

As to `COc1cc(OC)c2c(=O)[nH]c(-c3cc(C)c(OCCO)c(C)c3)nc2c1` [RVX-208, reference compound], in the assay with DUX4 (irrespective of treatment time (15 h or 72 h), not shown), the “effect on DUX4 expression” value is recorded as “did not show any effect on DUX4 expression”.

As for `Fc1cccc(-n2cnc3c(NCc4nc5ccc(F)c(F)c5[nH]4)nc(N4CCOCC4)nc32)c1` [SR-3029, reference compound], the half-maximal inhibitory concentration (IC50) at p38α and at CK1α was 1000 nM in each case. Besides, in the assay with DUX4 (15 h), the EC50 was in the range of 50 to 120 nM.
